We go through 5 compounds from patent US10064839B2, “Methods of treating liver diseases” (Zafgen, Inc., priority 2012, dated 2018).

The structures appear in SMILES notation.

For the test, the system named is diet induced obese mice (C57BL6). As to the kind of experiment: Diet induced obese mice, 10 days oral 30 mg/kg: body weight and serum cholesterol. It is filed as in vivo, mouse. The following applies: DIO C57BL6 mice, 30 mg/kg oral gavage; for Cholesterol Change: serum. On the procedure:
Compounds were tested in diet induced obese mice (C57BL6) that were on a 65% high fat diet for 8-10 weeks. Mice were dosed for 10 days by oral gavage with 30 mg/kg of the compounds listed. Their body weights were recorded along with serum chemistries including cholesterol.

Take `CCN(CC)C/C=C\c1ccccc1S(=O)(=O)Cc1ccc(-c2ccoc2)c(OC)c1C(=O)O`: the “Body Weight Change” value was −6.0% and the “Cholesterol Change” value is recorded as “No change”.
Take `CCN(CC)C/C=C\c1cc(F)ccc1S(=O)(=O)Nc1ccc2c(c1C(=O)O)OC[C@H]1CCCN21`: the “Body Weight Change” value is given as −2.0% and the “Cholesterol Change” value is reported as −24%.
The like results for `CCN(CC)C/C=C\c1cc(F)ccc1S(=O)(=O)Nc1ccc2c(c1C(=O)O)OCc1occc1-2` were, in that order, −7.0% and −35%.
Turning to `CCN(CC)C/C=C\c1cc(F)ccc1S(=O)(=O)Nc1ccc2c(c1C(=O)O)OCCc1occc1-2`, the “Body Weight Change” value is −2.1% and the “Cholesterol Change” value is “No change”.
With `CCN(CC)C/C=C\c1cc(F)ccc1S(=O)(=O)Nc1ccc2c(ncc3occc32)c1C(=O)O`, the “Body Weight Change” value was −16% and the “Cholesterol Change” value is on record as “No change”.
